The record followed here is US11136325B2, “Pyrrolopyrimidine and pyrrolopyridine derivatives” (GALAPAGOS NV, priority 2017, dated 2021).

In the test the test system is ASK1/2 (phospho-MKK3 in H2O2-stimulated PBMCs). As to the kind of experiment: ASK1/2 cellular assay: phospho-MKK3 in H2O2-stimulated PBMCs, western blot. Particulars: PBMC, 0.5 h, 3 mM H2O2, 30 min, read-out: Inhibition (pIC50) (converted). Format: cell-based. Here is the method:
ASK1/2 activity in vitro was assayed by determining the quantity of phospho-MKK3 protein in H2O2-stimulated PBMCs, using western blot method.
• Lymphoprep (Axis-Shield, Cat. No. 1114545) • Ammonium chloride lysate buffer pH 7.4 (10× concentrated): • NH4Cl—final conc. 1.5 M (Kemika, Cat. No. 0137407) • NaHCO3— final conc. 100 mM (Kemika, Cat. No. 1411007) • Na2EDTA—final conc. 10 mM (Sigma Aldrich; Cat. No. E-4884) • RPMI 1640 (Lonza Cat. No. BE12-115F/U1) • FBS (Sigma Cat. No. F7524, heat inactivated 30′/56° C.) • Dimethyl sulfoxide (DMSO) (Sigma, Cat. No. D2650) • Cell lysis buffer (pH 7.4): PBS+1% Triton X-100 (Sigma Aldrich; Cat. No. X100)—10 ml • Phospho-Stop—1 tablet (Sigma, Cat. No. 4693124001) • Protease Inhibitor—1 tablet (Sigma, Cat. No. 4906837001) • Hydrogen peroxide solution 3% w/w (Sigma Aldrich, Cat. No. H-6520) • PBS (Sigma Aldrich, Cat. No. P4417-100TAB) • Microplate, 96 well, pp, v-bottom, clear (Greiner bio-one; Cat. No. 651201) • Tissue culture plate, 6 well, flat bottom with low evaporation lid (Falcon, Cat. No. 353224) • 50 mL falcon tube (TPP, Cat. No. 91050) • Pierce BCA Protein Assay Kit (Thermo Scientific, Cat. No. 23225) • Immulon® Microtiter™ 96-Well Plate 1B (Thermo Scientific, Cat. No. 3355) • Wes 12-230 kDa Master Kit (Protein Simple, Cat. No. PS-MK14) • MKK3 (D4C3) Rabbit mAb (Cell Signaling, Cat. No. 8535) • Phospho-MKK3 (Ser189)/MKK6 (Ser207) (D8E9) Rabbit mAb (Cell Signaling, Cat. No. 12280)
The assay was configured to run using the following conditions: Tested compounds concentration range: 1-0.0014 μM (7 three-fold serial dilutions); H2O2 concentration: 3 mM
To isolate the PBMCs from buffy coat, the buffy coat was diluted 1:1 in PBS, then the dilute buffy-coat (25 mL) was carefully pipetted on top of 20 mL of Lymphoprep in a falcon tube. The tubes were then spun for 35 min at 400×g. The upper plasma layer is then carefully removed leaving the layer containing the MNCs. The layer containing the MNCs is then transferred to a new tube, PBS is added up to a total volume of 50 mL and the tube is then spun for 10 minutes (200×g, 25° C.). The resulting pellet is then resuspended in 2 mL PBS, the washing step was repeated. The final pellets were resuspended in ammonium chloride lysate buffer up to 50 mL, mixed gently and centrifuged for 10 minutes (200×g, 25° C.), resuspended in 2-3 mL of cell medium and diluted up to 50 mL in cell medium. The cell density of a 1/20 dilution in cell medium was determined using an automated cell counter.
10×10^6 PBMCs were seeded per well in 1 mL of RPMI 1640 cell medium supplemented with 10% FBS in 6-well plates. Seven sets of three-fold serial dilutions of compounds in DMSO starting from 1 mM in 96-well v-bottom plate were prepared. The DMSO compound solutions were diluted 100× in the cell medium. 200 μL of 100× diluted compound solution were added per well, control wells contained 200 μL of 1% DMSO prepared in cell medium. 7.5 mM H2O2 in cell medium was prepared and 800 μL was added to each well, except the negative control well to which 800 μL of cell medium was added. The cells were incubated for 30 min at 37° C., 5% CO2, 95% humidity. The cells were transferred to 2 mL Eppendorf tubes and centrifuged for 10 minutes at 300×g at 4° C., they were then washed with 1 mL PBS, the cell pellet was resuspended in 100 μL of lysis buffer and incubated on ice for 30 minutes. After which time the cell lysates were centrifuged for 5 minutes at 10000×g at 4° C. and the supernatants were then stored at −20° C.
Samples were diluted 5× in cell lysis buffer and total protein concentration was determined in 96-well Immulon 1B plate using BCA Protein Assay Kit following manufacturer's instructions.
Western blot assay was performed using Protein Simple Wes Master Kit and device, following manufacturer's instructions. 0.5 mg/mL of total proteins was loaded per sample; phospho-MKK3 and MKK3 antibodies were diluted 300×. […]
Background: Immunoblotting shows a protein as a band on a membrane.

Structures are written as SMILES.

As to `Cc1c[nH]c2ncnc(N3CCC(NC(=O)c4cc(N)ncc4F)CC3)c12` [Compound 1, 2-amino-5-fluoro-N-[1-(5-methyl-7H-pyrrolo[2,3-d]pyrimidin-4-yl)-4-piperidyl]pyridine-4-carboxamide], the IC50 is 8.91 nM.
In the case of `Cc1cnc(N)cc1C(=O)NC1CCN(c2ncnc3[nH]cc(C)c23)CC1` [Compound 2, 2-amino-5-methyl-N-[1-(5-methyl-7H-pyrrolo[2,3-d]pyrimidin-4-yl)-4-piperidyl]pyridine-4-carboxamide] it was 3.16 nM; in that of `Cc1c[nH]c2ncnc(N3CCC(NC(=O)c4cc(N)ncc4Cl)CC3)c12` [Compound 3, 2-amino-5-chloro-N-[1-(5-methyl-7H-pyrrolo[2,3-d]pyrimidin-4-yl)-4-piperidyl]-pyridine-4-carboxamide], 39.8 nM.
In the case of `Nc1cc(C(=O)NC2CCN(c3ncnc4[nH]cc(Cl)c34)CC2)ccn1` [Compound 4, 2-amino-N-[1-(5-chloro-7H-pyrrolo[2,3-d]pyrimidin-4-yl)-4-piperidyl]pyridine-4-carboxamide], the IC50 is 7.94 nM.
With `Nc1cc(C(=O)NC2CCN(c3ncnc4[nH]cc(Cl)c34)CC2)c(F)cn1` [Compound 5, 2-amino-N-[1-(5-chloro-7H-pyrrolo[2,3-d]pyrimidin-4-yl)-4-piperidyl]-5-fluoro-pyridine-4-carboxamide] the figure was 6.31 nM; with `Cc1c[nH]c2ncc(C#N)c(N3CCC(NC(=O)c4cc(N)ncc4F)CC3)c12` [Compound 6, 2-amino-N-[1-(5-cyano-3-methyl-1H-pyrrolo[2,3-b]pyridin-4-yl)-4-piperidyl]-5-fluoro-pyridine-4-carboxamide], 12.6 nM.
With `Nc1cc(C(=O)NC2CCN(c3ccnc4[nH]cc(Cl)c34)CC2)c(F)cn1` [Compound 7, 2-amino-N-[1-(3-chloro-1H-pyrrolo[2,3-b]pyridin-4-yl)-4-piperidyl]-5-fluoro-pyridine-4-carboxamide] the figure was 12.6 nM.
